Source: PMC10247784, “Physiological activation of human and mouse bitter taste receptors by bile acids” (Communications Biology, 2023)
“And” between values parts separate entries of the source, which are not always exact repeats. Equal entries are not always repeated.

Target: T1, human TAS2R14 (Homo sapiens, UniProt Q9NYV8)
T1 construct: expressed in transfected cells; host or cells: HEK293T-Gα16gust44
T1 sequence (Q9NYV8 1-317): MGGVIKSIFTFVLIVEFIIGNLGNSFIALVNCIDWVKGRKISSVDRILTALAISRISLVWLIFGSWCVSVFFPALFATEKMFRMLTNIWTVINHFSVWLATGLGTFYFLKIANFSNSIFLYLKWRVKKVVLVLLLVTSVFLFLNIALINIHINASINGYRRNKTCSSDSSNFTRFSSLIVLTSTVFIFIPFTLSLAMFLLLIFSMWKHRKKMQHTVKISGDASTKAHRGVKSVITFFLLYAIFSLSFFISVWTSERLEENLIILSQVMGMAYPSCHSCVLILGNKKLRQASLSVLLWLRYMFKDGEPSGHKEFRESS
Assay: Calcium imaging assay (FLIPR), HEK293T-Gα16gust44 cells transfected with human TAS2R14
Type: cell-based
Conditions: for RLU: TAS2R14 trace
Summary of the method: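 Calcium responses via FLIPR in receptor-transfected HEK293T-Gα16gust44 cells (Fluo-4-AM, 2.5 mM probenecid), after mock-signal subtraction and normalization to baseline and buffer (ΔF/F). Threshold concentration is the lowest dose differing from mock cells at p < 0.01 (Student's t-test), from three biological replicates in duplicate.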

`C[C@H](CCC(=O)NCCS(=O)(=O)O)[C@H]1CC[C@H]2[C@@H]3[C@H](O)C[C@@H]4C[C@H](O)CC[C@]4(C)[C@H]3C[C@H](O)[C@]12C` [Taurocholic Acid, taurocholic acid] was tested, and the “Efficacy = maximal amplitude (ΔF/F)” value (TAS2R14, bile acids, mean) was 0.2246, the “Efficacy (maximal amplitude ΔF/F), individual data points” value (TAS2R14, bile acids, single replicates, listed as TCA) was 0.1896 and 0.238 and 0.2462 and the “Δ F/F” value (TAS2R14, conc. 0,01 mM) was -0.01734. For the same compound, the “Δ F/F” value (TAS2R14, conc. 0,1 mM) was -0.007315, the “Δ F/F” value (TAS2R14, conc. 0,03 mM) was -0.005139 and the “Δ F/F” value (TAS2R14, conc. 0,3 mM) was 0.03332. The “Δ F/F” value (TAS2R14, conc. 0,001 mM) was -0.02529, the “Δ F/F” value (TAS2R14, conc. 1 mM) was 0.2246 and the “Δ F/F” value (TAS2R14, conc. 0,003 mM) was -0.01812. For the same compound, the RLU (Time (s) 0) was 0 RLU, the RLU (Time (s) 2 (Taurocholic Acid 2.016)) was 15.4574 RLU and the RLU (Time (s) 4 (Taurocholic Acid 4.016)) was -13.3747 RLU. The RLU (Time (s) 6 (Taurocholic Acid 6.016)) was -38.8354 RLU, the RLU (Time (s) 8 (Taurocholic Acid 8.016)) was -33.6332 RLU and the RLU (Time (s) 12 (Taurocholic Acid 12.016)) was -53.4595 RLU. For the same compound, the RLU (Time (s) 14 (Taurocholic Acid 14.016)) was -55.3521 RLU, the RLU (Time (s) 16 (Taurocholic Acid 16.016)) was -65.1913 RLU and the RLU (Time (s) 18 (Taurocholic Acid 18.016)) was -43.8232 RLU. The RLU (Time (s) 18.797 (Chenodeoxycholic Acid 18.765)) was -59.7397 RLU, the RLU (Time (s) 20.797 (Chenodeoxycholic Acid 20.781)) was -48.6104 RLU and the RLU (Time (s) 22.797 (Chenodeoxycholic Acid 22.781)) was -37.2936 RLU. For the same compound, the RLU (Time (s) 24.797 (Chenodeoxycholic Acid 24.781)) was -25.1873 RLU, the RLU (Time (s) 26.797 (Chenodeoxycholic Acid 26.781)) was -30.6749 RLU and the RLU (Time (s) 28.797 (Chenodeoxycholic Acid 28.781)) was 4.524 RLU. It also gave an RLU (Time (s) 30.797 (Chenodeoxycholic Acid 30.781)) of -8.18 RLU, an RLU (Time (s) 32.797 (Chenodeoxycholic Acid 32.781)) of 30.1537 RLU and an RLU (Time (s) 34.797 (Chenodeoxycholic Acid 34.781)) of 70.0865 RLU. For the same compound, the RLU (Time (s) 36.797 (Chenodeoxycholic Acid 36.781)) was 98.6425 RLU, the RLU (Time (s) 38.797 (Chenodeoxycholic Acid 38.781)) was 134.228 RLU and the RLU (Time (s) 40.797 (Chenodeoxycholic Acid 40.781)) was 192.709 RLU. For the same compound, the RLU (Time (s) 42.797 (Chenodeoxycholic Acid 42.781)) was 232.913 RLU, the RLU (Time (s) 44.797 (Chenodeoxycholic Acid 44.781)) was 243.453 RLU and the RLU (Time (s) 46.797 (Chenodeoxycholic Acid 46.781)) was 297.017 RLU. For the same compound, the RLU (Time (s) 48.797 (Chenodeoxycholic Acid 48.781)) was 343.953 RLU, the RLU (Time (s) 50.797 (Chenodeoxycholic Acid 50.781)) was 379.622 RLU and the RLU (Time (s) 52.797 (Chenodeoxycholic Acid 52.781)) was 398.833 RLU. It also gave an RLU (Time (s) 54.797 (Chenodeoxycholic Acid 54.781)) of 459.728 RLU, an RLU (Time (s) 56.797 (Chenodeoxycholic Acid 56.781)) of 470.92 RLU and an RLU (Time (s) 58.797 (Chenodeoxycholic Acid 58.781)) of 515.163 RLU. It also gave an RLU (Time (s) 60.797 (Chenodeoxycholic Acid 60.781)) of 529.36 RLU, an RLU (Time (s) 62.797 (Chenodeoxycholic Acid 62.781)) of 543.404 RLU and an RLU (Time (s) 64.797 (Chenodeoxycholic Acid 64.781)) of 572.542 RLU. The RLU (Time (s) 66.797 (Chenodeoxycholic Acid 66.781)) was 570.299 RLU, the RLU (Time (s) 68.797 (Chenodeoxycholic Acid 68.781)) was 602.865 RLU and the RLU (Time (s) 70.797 (Chenodeoxycholic Acid 70.781)) was 609.474 RLU. It also gave an RLU (Time (s) 72.797 (Chenodeoxycholic Acid 72.781)) of 663.572 RLU, an RLU (Time (s) 74.797 (Chenodeoxycholic Acid 74.781)) of 688.158 RLU and an RLU (Time (s) 76.797 (Chenodeoxycholic Acid 76.781)) of 696.58 RLU. The RLU (Time (s) 78.797 (Chenodeoxycholic Acid 78.781)) was 702.313 RLU, the RLU (Time (s) 80.797 (Chenodeoxycholic Acid 80.781)) was 724.676 RLU and the RLU (Time (s) 82.797 (Chenodeoxycholic Acid 82.781)) was 729.222 RLU. It also gave an RLU (Time (s) 84.797 (Chenodeoxycholic Acid 84.781)) of 755.668 RLU, an RLU (Time (s) 86.797 (Chenodeoxycholic Acid 86.781)) of 758.133 RLU and an RLU (Time (s) 88.797 (Chenodeoxycholic Acid 88.781)) of 801.791 RLU. For the same compound, the RLU (Time (s) 90.797 (Chenodeoxycholic Acid 90.781)) was 813.667 RLU, the RLU (Time (s) 92.797 (Chenodeoxycholic Acid 92.781)) was 823.99 RLU and the RLU (Time (s) 94.797 (Chenodeoxycholic Acid 94.781)) was 849.724 RLU. The RLU (Time (s) 96.797 (Chenodeoxycholic Acid 96.781)) was 840.46 RLU, the RLU (Time (s) 98.797 (Chenodeoxycholic Acid 98.781)) was 832.423 RLU and the RLU (Time (s) 100.797 (Chenodeoxycholic Acid 100.781)) was 870.888 RLU. It also gave an RLU (Time (s) 102.797 (Chenodeoxycholic Acid 102.781)) of 887.784 RLU, an RLU (Time (s) 104.797 (Chenodeoxycholic Acid 104.781)) of 895.487 RLU and an RLU (Time (s) 106.797 (Chenodeoxycholic Acid 106.781)) of 886.141 RLU. For the same compound, the RLU (Time (s) 108.797 (Chenodeoxycholic Acid 108.781)) was 931.883 RLU, the RLU (Time (s) 110.797 (Chenodeoxycholic Acid 110.781)) was 935.64 RLU and the RLU (Time (s) 112.797 (Chenodeoxycholic Acid 112.781)) was 971.794 RLU. It also gave an RLU (Time (s) 114.797 (Chenodeoxycholic Acid 114.781)) of 962.409 RLU, an RLU (Time (s) 116.797 (Chenodeoxycholic Acid 116.781)) of 993.706 RLU and an RLU (Time (s) 118.797 (Chenodeoxycholic Acid 118.781)) of 1000.54 RLU. It also gave an RLU (Time (s) 120.797 (Chenodeoxycholic Acid 120.781)) of 1025.82 RLU, an RLU (Time (s) 122.797 (Chenodeoxycholic Acid 122.781)) of 1039.5 RLU and an RLU (Time (s) 124.797 (Chenodeoxycholic Acid 124.781)) of 1041.39 RLU. The RLU (Time (s) 126.797 (Chenodeoxycholic Acid 126.781)) was 1050.25 RLU, the RLU (Time (s) 128.797 (Chenodeoxycholic Acid 128.781)) was 1043.78 RLU and the RLU (Time (s) 130.797 (Chenodeoxycholic Acid 130.781)) was 1042.75 RLU. For the same compound, the RLU (Time (s) 132.797 (Chenodeoxycholic Acid 132.781)) was 1039.88 RLU, the RLU (Time (s) 134.797 (Chenodeoxycholic Acid 134.781)) was 1050.77 RLU and the RLU (Time (s) 136.797 (Chenodeoxycholic Acid 136.781)) was 1036.12 RLU. The RLU (Time (s) 137.562 (Taurocholic Acid 137.563, Chenodeoxycholic Acid 137.546)) was 1048.18 RLU, the RLU (Time (s) 143.578 (Taurocholic Acid 143.563, Chenodeoxycholic Acid 143.546)) was 1008.4 RLU and the RLU (Time (s) 149.578 (Taurocholic Acid 149.563, Chenodeoxycholic Acid 149.546)) was 998.739 RLU. For the same compound, the RLU (Time (s) 155.578 (Taurocholic Acid 155.563, Chenodeoxycholic Acid 155.546)) was 977.028 RLU, the RLU (Time (s) 161.578 (Taurocholic Acid 161.563, Chenodeoxycholic Acid 161.546)) was 958.674 RLU and the RLU (Time (s) 167.578 (Taurocholic Acid 167.563, Chenodeoxycholic Acid 167.546)) was 918.668 RLU. It also gave an RLU (Time (s) 173.578 (Taurocholic Acid 173.563, Chenodeoxycholic Acid 173.546)) of 888.356 RLU, an RLU (Time (s) 179.578 (Taurocholic Acid 179.563, Chenodeoxycholic Acid 179.546)) of 847.479 RLU and an RLU (Time (s) 191.578 (Taurocholic Acid 191.563, Chenodeoxycholic Acid 191.546)) of 745.479 RLU. The RLU (Time (s) 197.578 (Taurocholic Acid 197.563, Chenodeoxycholic Acid 197.546)) was 696.127 RLU, the RLU (Time (s) 209.578 (Taurocholic Acid 209.563, Chenodeoxycholic Acid 209.546)) was 643.487 RLU and the RLU (Time (s) 221.578 (Taurocholic Acid 221.563, Chenodeoxycholic Acid 221.546)) was 526.781 RLU. The RLU (Time (s) 233.578 (Taurocholic Acid 233.563, Chenodeoxycholic Acid 233.546)) was 416.225 RLU, the RLU (Time (s) 239.578 (Taurocholic Acid 239.563, Chenodeoxycholic Acid 239.546)) was 342.018 RLU and the RLU (Time (s) 245.578 (Taurocholic Acid 245.563, Chenodeoxycholic Acid 245.546)) was 303.535 RLU. It also gave an RLU (Time (s) 293.578 (Taurocholic Acid 293.563, Chenodeoxycholic Acid 293.546)) of 127.213 RLU, an RLU (Time (s) 299.578 (Taurocholic Acid 299.563, Chenodeoxycholic Acid 299.546)) of 108.412 RLU and an RLU (Time (s) 305.578 (Taurocholic Acid 305.563, Chenodeoxycholic Acid 305.546)) of 98.929 RLU. It also gave an RLU (Time (s) 311.578 (Taurocholic Acid 311.563, Chenodeoxycholic Acid 311.546)) of 88.6159 RLU, an RLU (Time (s) 317.578 (Taurocholic Acid 317.563, Chenodeoxycholic Acid 317.546)) of 79.3923 RLU and an RLU (Time (s) 323.578 (Taurocholic Acid 323.563, Chenodeoxycholic Acid 323.546)) of 80.4704 RLU. For the same compound, the RLU (Time (s) 329.578 (Taurocholic Acid 329.563, Chenodeoxycholic Acid 329.546)) was 68.4196 RLU, the RLU (Time (s) 335.578 (Taurocholic Acid 335.563, Chenodeoxycholic Acid 335.546)) was 88.4103 RLU and the RLU (Time (s) 341.578 (Taurocholic Acid 341.563, Chenodeoxycholic Acid 341.546)) was 53.5929 RLU. It also gave an RLU (Time (s) 347.578 (Taurocholic Acid 347.563, Chenodeoxycholic Acid 347.546)) of 48.7046 RLU, an RLU (Time (s) 353.578 (Taurocholic Acid 353.563, Chenodeoxycholic Acid 353.546)) of 68.797 RLU and an RLU (Time (s) 359.578 (Taurocholic Acid 359.563, Chenodeoxycholic Acid 359.546)) of 47.7517 RLU. For the same compound, the “Activation threshold concentration TAS2R14” value (lowest concentration with significantly increased fluorescence vs empty vector (p < 0.01)) was 300 µM.
